Test results published in patent publication US9266829B2, “Quinone compounds and their uses for the treatment of cancer” (Onco-NX Limited, priority 2012, dated 2016).

How the values were obtained:
MDA468 = experiment: IC50 by MTT assay on MDA468 cells; type: cell-based, human
serum esterase = experiment: Degradation by serum esterase (hydrolysis in serum); type: in vitro ADME
Description: The cleavage of Es5 by esterase and cell extracts and its activation were investigated.

MDA NQ01 = experiment: IC50 by MTT assay on NQ01 cells; type: cell-based, human
H460 NSCLC = experiment: In vivo hollow fibre assay, H460; settings: i.p. dosing days 3-6, nude mice
Protocol: The activity of Es5 (4.65) was evaluated in vivo against 3 cancer cell lines H460, MDA-MB-468-NQ01 and MDA-MB-468-MOCK using the in vivo hollow fibre assay (HFA), with fibres implanted at both intraperitoneal (i.p.) and subcutaneous (s.c.) sites. Es5 and the control agent Doxorubicin were administered as multiple doses by intraperitoneal injection (i.p.) on days 3, 4, 5 & 6 at 0.5 mg/kg/day and 2.5 mg/kg/day respectively.
Three human tumour cell lines were selected for analysis: H460 NSCLC (from ICT) and two breast carcinoma lines MDA-MB-468-NQ01 and MDA-MB-468-MOCK (both supplied by Onco-NX). Cells were cultured in RPMI 1640 cell culture medium supplemented with 1 mM sodium pyruvate, 2 mM L-glutamine and 10% foetal bovine serum (all from Sigma), and maintained as monolayer cultures at 37° C. in a humidified 5% CO2 environment.
Female Balb/C immunodeficient nude mice aged 6-8 weeks were used (Harlan UK, Blackthorn, UK). Mice were kept in cages housed in isolation cabinets in an air-conditioned room with regular alternating cycles of light and darkness. They received Teklad 2018 diet (Harlan, Blackthorn, UK) and water ad libitum. All animal procedures were carried out under a project licence issued by the UK Home Office and UKCCCR guidelines were followed throughout.
Cells were loaded into sterilised colour-coded PVDF Spectra/Por hollow fibres (HF) (Spectrum Medical Inc, Houston, Tex., USA). Briefly cells were harvested and resuspended in cell culture medium at the required cell density. This preparation was then loaded into the HF and the ends were clamped and heat-sealed. […]
Mice were sacrificed on day 7 post-implantation, fibres removed, and cell survival analysed using a modified MTT assay, comparing absorbances seen for the treated groups with the corresponding untreated control group. […]

[1] = test system: DT-diaphorase null MDA 468 cells; experiment: Apoptosis by Annexin V binding, DT-diaphorase null MDA 468 cells; type: cell-based, human
Protocol: Based on the method described in Martin et al. (Journal of Experimental Medicine. 182, 1545-1556. 1995), the induction of apoptosis caused by the compounds of the present invention was determined.

MDA468NQ01 = experiment: DNA damage, Comet assay, MDA468NQ01 cells; type: cell-based, human; settings: 10 nM for 2 hrs, compared to H2O2 alone
Protocol: DNA damage was measured using the Comet assay to investigate the effect of Es5 on the comet head and tail intensities following treatment of MDA468NQ01 and the DT-diaphorase null MDA468 cell lines. […] Without wishing to be bound by any particular theory, the inventors believe that this must arise by a different mechanism such as 2×one electron reductions, rather than the 2 electron reduction that occurs with DT-diaphorase.

CC(=O)OCCCC1=C(N2CC2)C(=O)C(C)=C(N2CC2)C1=O [Es5, Acetic Acid 3-(2,5-bis-aziridin-1-yl-4-methyl-3,6-dioxo-cyclohexa-1,4-dienyl)-propyl ester]
IC50 (MDA468; Homo sapiens): 25 nM | IC50 (MDA468; listed as Es5 (4.65)): 20 to 25 nM | Degradation by serum esterase, t90 (serum esterase; T90 = time taken to degrade to 90% of starting concentration): t90 90 mins | half-life (serum esterase; serum, read-out: hydrolysis in serum, t1/2): 100 min | IC50 (MDA NQ01; Homo sapiens, MTT assay): 0.23 nM | selectivity towards cells that express DT-diaphorase (MDA NQ01; IC50 values, MTT assay): excellent selectivity | MDA468 to NQ01 differential (MDA NQ01; ratio of IC50 values): > 80 fold | cell survival compared to the untreated control, H460, i.p. site (H460 NSCLC; fibres at i.p. site, p<0.01): significant efficacy | cell survival compared to the untreated control, H460, s.c. site (H460 NSCLC; fibres at s.c. site): significant efficacy | apoptosis (Annexin V binding) at 2 hours ([1]; 2 hours): no death is seen | apoptosis (Annexin V binding) after 4 hrs ([1]; after 4 hrs): reduced level of apoptosis | Comet assay head and tail intensities (DNA cross-linking) (MDA468NQ01): increased the proportion of DNA in the head
